From article PMC9223062, “Purification and Characterization of a Dark Red Skin Related Dimeric Polyphenol Oxidase from Huaniu Apples” (Foods, 2022)
Blank lines part the entries; values can stand above or below the molecule they belong to.

Experiments:
[1] = test system: T1, dimeric PPO from Huaniu apple peel; test: spectrophotometric oxidation assay, Lineweaver-Burk; assay type: biochemical, Malus domestica; details: pH 5.0 citrate phosphate buffer, 25 °C
T1 construct: gene PPO2; native, purified from fruit peel (ammonium sulfate, DEAE-sepharose, Sephadex G-200); soluble PPO; about 140 kDa by native-PAGE and SDS-PAGE, 61 kDa monomer by urea-SDS-PAGE, homodimer
Source text: spectrophotometric oxidation assay, Lineweaver-Burk on dimeric PPO from Huaniu apple peel

[2] = test system: T1, dimeric PPO from Huaniu apple peel; test: spectrophotometric oxidation assay at […] nm, Lineweaver-Burk; assay type: biochemical, Malus domestica; details: pH 5.0 citrate phosphate buffer, 25 °C; abstract 1.17, b44 prints 1.16

Km [1]: 2470 µM
Compound: Cc1ccc(O)c(O)c1 [4-methylcatechol]

Km [1]: 4630 µM
Compound: Oc1cc(O)c2c(c1)O[C@H](c1ccc(O)c(O)c1)[C@@H](O)C2 [CT, (+)-catechin]

Km [2]: 1170 µM
Compound: Oc1cc(O)c2c(c1)O[C@H](c1ccc(O)c(O)c1)[C@H](O)C2 [EC, (−)-epicatechin]

Compound: Oc1ccccc1O [catechol]
Km ([1]; text prints 0.60): 610 µM

Km ([1]; text b44 prints 1.29, table value agrees with its Vmax/Km): 2220 µM
Compound: O=C(/C=C/c1ccc(O)c(O)c1)O[C@@H]1C[C@](O)(C(=O)O)C[C@@H](O)[C@H]1O [chlorogenic acid]
